Laboratory results from patent US11339193B2, “CDP protein secretion inhibitors” (KEZAR LIFE SCIENCES, priority 2018, dated 2022).
Where two headings read alike, the source gives them in different places. Numbered stars: 1 amine (or outer) side, 2 acyl side, 3 side chain; on linkers, the order of the positions; unused ones are H or OH. Square brackets hold non-standard residues; d marks the D form. Peptide text beside a SMILES is read from it. NMeAla(5-Cl-benzothien-3-yl) = CN[C@@H](Cc1csc2ccc(Cl)cc12)C(=O)O; X13 = CN([C@@H](Cc1cn(Cc2ccc(Br)cc2)c2ccc(F)cc12)C(=O)[*:2])[*:1]; X19 = CN([C@@H](Cc1cn(Cc2ccc(Cl)cc2)c2ccccc12)C(=O)[*:2])[*:1]; Butanoyl(2R-oxy,4-CN) = N#CCC[C@@H](O)C(=O)O; Abu(4,4,4-F3) = N[C@@H](CC(F)(F)F)C(=O)O; X12 = O=C([C@H](CC1=CCCC1)N[*:1])[*:2]; NMeL = CN[C@@H](CC(C)C)C(=O)O; NMeA = CN[C@@H](C)C(=O)O

Legend:
Type in all cases: cell-based
[1] = system: NCI-H929 multiple myeloma cell line; assay: H929 assay (cell viability, Celltiter-Glo); details: Homo sapiens, read-out: H929 EC50
Experimental: The human multiple myeloma cell line NCI-H929 was cultured in Advanced RPMI 1640 media (Gibco@) supplemented with 6% fetal bovine serum, 2 mM Glutamine, and 1× Penicillin/Streptomycin. On the day of assay, cells were resuspended in RPMI 1640 media supplemented with 10% fetal bovine serum, 2 mM Glutamine, and 1× Penicillin/Streptmycin and plated in 384-well tissue culture plates and treated with compound dilutions in DMSO/media. Plates were incubated at 37° C., 5% CO2 for 48 hours. After 48 hours, Celltiter-Glo@ (Promega) was added to each well and luciferase signal was quantified using Tecan Infinite M1000 Pro for cell viability determination.

[2] = system: Prl-ss+10aa/Gaussia Luciferase; assay: Prl-ss-Gluc assay (constitutively active or 24 hr Dox inducible)
Text: Constitutively Active Prl-ss-Gluc Assay
Flp-In 293 T-REx™ cells were transfected with pcDNA™5/FRT plasmid inserted with cDNA encoding Gaussia Luciferase fused to the 3′ end of cDNA encoding Prl signal sequence plus 10 amino acids (N-[…]-C) (SEQ ID NO:4). Transfected cells were selected for resistance to the selectable markers Hygromycin and Blasticidin to create a stable cell line that constitutively expressed the Prlss+10aa/Gaussia Luciferase fusion protein. The day before assay, cells were trypsinized and plated in 384-well tissue culture plates. The next day, culture media was removed from the wells and replaced with fresh media. Compound dilutions in DMSO/media were added to the wells and incubated at 37° C., 5% CO2.
24 hr Dox Inducible Prl-ss-Gluc Assay
(§1) Flp-In 293 T-REx™ cells were transfected with pcDNA™5/FRT/TO plasmid inserted with cDNA encoding Gaussia Luciferase fused to the 3′ end of cDNA encoding Prl signal sequence plus 10 amino acids (N-[…]-C) (SEQ ID NO:5). Transfected cells were selected for resistance to the selectable markers Hygromycin and Blasticidin to create a stable cell line that contained the Prl-ss+10aa/Gaussia Luciferase cDNA insert whose expression was regulated under the T-REx™ system. The day before assay, cells were trypsinized and plated in 384-well tissue culture plates. The next day, compound dilutions in DMSO/media containing doxycycline were added to the wells and incubated at 37° C., 5% CO2.

[3] = system: HER3ss-Gluc; assay: HER3ss assay
Experimental: The mature domain of secreted luciferase from Gaussia princeps (GLuc) was cloned into pcDNA5/FRT/TO. The signal sequence plus four amino acids of the mature domain from HER3 ([…]) (SEQ ID NO:8) were cloned upstream of GLuc mature domain and used in transient transfection experiment. HEK-293T T-rex cells were cultured in Dulbecco's modified Eagle's medium with 10% FBS at 5% CO2. Cells were plated 1×10e6 cells per well in a 6-well plate and incubated for 6 h. Cells were transiently transfected with HER3ss-Gluc using Lipofectamine 2000 (Invitrogen). After overnight incubation, transfected cells were replated in a clear-bottomed, black 96-well plate at a density of 20,000 cells per well. Six hours after plating, the cells were treated with doxycycline (1 μg/ml) and increasing concentrations of the indicated compounds for 24 h. Secreted luciferase in the conditioned media was quantified by luminescence using the BioLux Gaussia Luciferase Assay Kit (New England Biolabs, Ipswich, Mass., USA) and a SpectraMax M5 plate reader (Molecular Devices).

[4] = system: TNFα-FL/Gaussia Luciferase; assay: Dox induced TNFα-FL-Gluc assay
Text: Dox Induced TNFα-FL-Gluc Assay
Flp-In 293 T-REx™ cells were transfected with pcDNA™5/FRT/TO plasmid inserted with cDNA encoding Gaussia Luciferase fused to the 3′ end of cDNA encoding full length TNFα (amino acids 1-233). Transfected cells were selected for resistance to the selectable markers Hygromycin and Blasticidin to create a stable cell line that contained the TNFα-FL/Gaussia Luciferase cDNA insert whose expression was regulated under the T-REx™ system. The day before assay, cells were trypsinized and plated in 384-well tissue culture plates. The next day, compound dilutions in DMSO/media containing doxycycline were added to the wells and incubated at 37° C., 5% CO2.

[5] = system: PD1-ss+10aa/Gaussia Luciferase; assay: Dox induced PD1-ss-Gluc assay
Text: Dox Induced PD1-ss-Gluc Assay
as §1, with “PD1” for “Prl”, “NO:3).” for “NO:5).”, “PD1-ss+10aa/Gaussia” for “Prl-ss+10aa/Gaussia”

[6] = system: U266B1 multiple myeloma cell line; assay: U266 assay (cell viability, Celltiter-Glo); details: Homo sapiens, U-266; I.A.
Experimental: Cells were plated in 384-well tissue culture plates and treated with compound dilutions in DMSO/media. Plates were incubated at 37° C., 5% CO2 for 48 hours. After 48 hours, Celltiter-Glo@ (Promega) was added to each well and luciferase signal was quantified using Tecan Infinite M1000 Pro for cell viability determination.

[7] = NCI-H929, 48 hours, cell viability
[8] = HEK-293T T-rex cells, transient transfection, doxycycline, 24 h; read-out: HER3 ss IC50
[9] = Flp-In 293 T-REx cells, doxycycline, 24 hours; read-out: TNFa FL Gluc IC50
[10] = Flp-In 293 T-REx cells, doxycycline, 24 hours; read-out: PD1ss Gluc IC50
[11] = Flp-In 293 T-REx cells, 24 hours; read-out: Prl IC50

EC50 [6] | EC50 [1, 7] | IC50 ([2]; I.A.; read-out: Prl IC50) | IC50 [3, 8] | IC50 [4, 9] | IC50 [5, 10] | IC50 [2, 11] | SMILES | EC50 ([1]; NCI-H929, 48 h) | IC50 ([2]; read-out: Prl IC50; Flp-In 293 T-REx cells, 24 hours) | IC50 ([3]; read-out: HER3 ss IC50; HEK-293T T-rex cells, transient transfection, doxycycline, 24 h) | IC50 ([4]; read-out: TNFa FL Gluc IC50; Flp-In 293 T-REx cells, doxycycline, 24 hours) | IC50 ([5]; read-out: PD1ss Gluc IC50; Flp-In 293 T-REx cells, doxycycline, 24 hours)
> 25000 nM | 8400 nM | > 25000 nM | 6 nM | 3840 nM | 472 nM | – | CC(C)C[C@@H]1NC(=O)[C@H](Cc2csc3ccc(Cl)cc23)N(C)C(=O)[C@H](CC2=CCCC2)NC(=O)[C@H](CC(C)C)N(C)C(=O)[C@H](CC(F)(F)F)NC(=O)[C@@H](CCC#N)OC(=O)[C@H](C)N(C)C1=O [C-96] (cyclo(L[NMeA][Butanoyl(2R-oxy,4-CN)][Abu(4,4,4-F3)][NMeL][X12][NMeAla(5-Cl-benzothien-3-yl)])) | – | – | – | – | –
> 25000 nM | 4000 nM | – | 35 nM | 889 nM | 259 nM | 17900 nM | CC(C)C[C@@H]1NC(=O)[C@H](Cc2csc3ccc(Cl)cc23)N(C)C(=O)[C@H](CC(C)C)NC(=O)[C@H](CC(C)C)N(C)C(=O)[C@H](CC2=CCCC2)NC(=O)[C@@H](CCC#N)OC(=O)[C@H](C)N(C)C1=O [C-98] (cyclo(L[NMeA][Butanoyl(2R-oxy,4-CN)][X12][NMeL]L[NMeAla(5-Cl-benzothien-3-yl)])) | – | – | – | – | –
> 25000 nM | 649 nM | – | 98 nM | 104 nM | 42 nM | 506 nM | CC(C)C[C@@H]1NC(=O)[C@H](Cc2cn(Cc3ccc(Br)cc3)c3ccc(F)cc23)N(C)C(=O)[C@H](CC(F)(F)F)NC(=O)[C@H](CC(C)C)N(C)C(=O)[C@H](CC(F)(F)F)NC(=O)[C@@H](CCC#N)OC(=O)[C@H](C)N(C)C1=O [C-82] (cyclo(L[NMeA][Butanoyl(2R-oxy,4-CN)][Abu(4,4,4-F3)][NMeL][Abu(4,4,4-F3)][X13])) | – | – | – | – | –
> 25000 nM | 608 nM | – | 72 nM | 77 nM | 37 nM | 802 nM | CC(C)C[C@@H]1NC(=O)[C@H](Cc2cn(Cc3ccc(Cl)cc3)c3ccccc23)N(C)C(=O)[C@H](CC(F)(F)F)NC(=O)[C@H](CC(C)C)N(C)C(=O)[C@H](CC(F)(F)F)NC(=O)[C@@H](CCC#N)OC(=O)[C@H](C)N(C)C1=O [C-84] (cyclo(L[NMeA][Butanoyl(2R-oxy,4-CN)][Abu(4,4,4-F3)][NMeL][Abu(4,4,4-F3)][X19])) | – | – | – | – | –

SMILES | EC50 [6] | EC50 [1, 7] | IC50 ([2]; I.A.; read-out: Prl IC50) | IC50 [3, 8] | IC50 [4, 9] | IC50 [5, 10] | IC50 [2, 11] | EC50 ([1]; NCI-H929, 48 h) | IC50 ([2]; read-out: Prl IC50; Flp-In 293 T-REx cells, 24 hours) | IC50 ([3]; read-out: HER3 ss IC50; HEK-293T T-rex cells, transient transfection, doxycycline, 24 h) | IC50 ([4]; read-out: TNFa FL Gluc IC50; Flp-In 293 T-REx cells, doxycycline, 24 hours) | IC50 ([5]; read-out: PD1ss Gluc IC50; Flp-In 293 T-REx cells, doxycycline, 24 hours)
CC(C)C[C@@H]1NC(=O)[C@H](Cc2cn(Cc3ccc(Cl)cc3)c3ccccc23)N(C)C(=O)[C@H](CC(C)C)NC(=O)[C@H](CC(C)C)N(C)C(=O)[C@H](CC(F)(F)F)NC(=O)[C@@H](CCC#N)OC(=O)[C@H](C)N(C)C1=O [C-95] (cyclo(L[NMeA][Butanoyl(2R-oxy,4-CN)][Abu(4,4,4-F3)][NMeL]L[X19])) | > 25000 nM | – | – | – | – | – | – | 588 nM | 391 nM | 35 nM | 93 nM | 19 nM
